Source: PMC8989696, “Characterization of furathiocarb metabolism in in-vitro human liver microsomes and recombinant cytochrome P450 enzymes” (Toxicology Reports, 2022)
Values joined by “and” are separate entries in the source; they are usually repeats but may differ in a detail not shown here. Equal values may be shown once. Read-outs that look alike come from different tables or passages of the source.

Legend:
[1] = test system: human CYP activities other than CYP1A2, CYP2B6, CYP2C9, CYP2C19; test: N-in-one CYP inhibition assay, pooled human hepatic microsomes, other CYP activities; format: in vitro ADME; conditions: pooled human liver microsomes (n = 10), pH 7.4, furathiocarb 1–100 µM, read-out: Other IC50 values (remaining CYP activities of N-in-one assay)
Method: N-in-one (“cocktail”) assay for measuring major CYP activities simultaneously, [55], [56] was employed to investigate human CYP-furathiocarb inhibitory interactions in pooled human hepatic microsomes. Furathiocarb (ﬁnal concentrations in the incubation mixture were 1, 5, 25, 50, and 100 µM) was added to the incubation mixture. The N-in-one was used earlier for the study of pesticide interactions and the details of the incubations with furathiocarb are described in Supplementary materials.
The kinetic parameters Vmax and Km were calculated by nonlinear regression. Bivariate linear Pearson’s correlation coefﬁcients (r2) were calculated between metabolite formations and model activities in the livers. GraphPad Prism 9 Software (Inc., San Diego, CA) Prism 9.0.0 (San Diego, CA) was used for kinetic parameters and correlation coefﬁcients analysis. The IC50 values were determined by linear regression analysis using OriginPro 2020 (MicroCal Software, Inc., Northampton, MA.
N-in-one assay was performed to investigate human CYP-furathiocarb inhibitory interactions. Furathiocarb (ﬁnal concentrations in the incubation mixture were 1, 5, 25, 50, and 100 µM) was added to the incubation mixture.
The N-in-one assay, analytical method and authentic standards have been described previously (Abass and Pelkonen 2013; Tolonen et al. 2007; Turpeinen et al. 2005). […]

[2] = Furathiocarb biotransformation kinetics in individual human hepatic microsomes (10 donors); format: in vitro ADME; conditions: for Km: human
Method: The incubation mixture (ﬁnal volume of 200 µl of 0.1 M phosphate buffer) contained 50 and 100 µM furathiocarb, 0.15 mg pooled liver microsomal protein (n = 10), and 1 mM NADPH. The reaction was initiated by NADPH after a 2 min pre-incubation at + 37 °C and was incubated for 30 min at + 37 °C. The reaction stopped with ice-cold acetonitrile containing an internal standard.
Enzyme kinetic parameters of both the microsomal samples and rCYP enzymes were measured. The incubation mixture contained furathiocarb (2.5, 10, 25, 50, 150 and 300 µM). Incubation times were 20 and 30 min for microsomal samples and rCYPs, respectively. Otherwise incubation mixtures and methods were the same as in metabolite identification. The rate of sum of furathiocarb metabolite formation was linear at least up to 0.15 mg protein/ml and 30 min incubation time in the standard experimental conditions.
The standard incubation mixture contained 50 and 100 µM furathiocarb, 0.15 mg pooled liver microsomal protein (n = 10), and 1 mM NADPH in a ﬁnal volume of 200 µl of 0.1 M phosphate buffer (pH 7.4). Furathiocarb was prepared once a week in dimethylsulfoxide (DMSO; ﬁnal amount in the reaction medium 1.0%). After a 2-min incubation at +37 ◦C in a shaking incubator block, the reaction was started by adding NADPH. The mixture was incubated at +37 ◦C for 30 min and the reaction was stopped with 600 µl of ice-cold acetonitrile containing an internal standard. All incubations were carried out in triplicate.

## CCCCOC(=O)N(C)SN(C)C(=O)Oc1cccc2c1OC(C)(C)C2 [furathiocarb, Furathiocarb]
[1]
  IC50 at 20 min: > 100 µM
[2]; HLM20
  CLint, sum of carbofuran metabolic pathway: 310.4 µL (mg protein min)
  CLint, sum of furathiocarb oxidation pathways: 12.63 µL (mg protein min)
  Vmax, sum of carbofuran metabolic pathway: 19.6 ± 1.7 nmol (mg protein min)
  Vmax, sum of furathiocarb oxidation pathways: 4.3 ± 0.8 nmol (mg protein min)
  carbofuran pathway / oxidation pathways (CLint ratio): 24.5 fold
[2]; HLM21
  CLint, sum of carbofuran metabolic pathway: 339.0 µL (mg protein min)
  CLint, sum of furathiocarb oxidation pathways: 9.22 µL (mg protein min)
  Vmax, sum of carbofuran metabolic pathway: 22.6 ± 2.5 nmol (mg protein min)
  Vmax, sum of furathiocarb oxidation pathways: 4.1 ± 1.1 nmol (mg protein min)
  carbofuran pathway / oxidation pathways (CLint ratio): 36.8 fold
[2]; HLM22
  CLint, sum of carbofuran metabolic pathway: 619.7 µL (mg protein min)
  Vmax, sum of carbofuran metabolic pathway: 44.5 nmol/ (mg protein min) and 44.5 ± 5.1 nmol/ (mg protein min)
[2]; HLM23
  CLint, sum of carbofuran metabolic pathway: 348.6 µL (mg protein min)
  CLint, sum of furathiocarb oxidation pathways: 13.48 µL (mg protein min)
  Vmax, sum of carbofuran metabolic pathway: 17.4 ± 1.6 nmol (mg protein min)
  Vmax, sum of furathiocarb oxidation pathways: 3.5 ± 7.3 nmol (mg protein min)
  carbofuran pathway / oxidation pathways (CLint ratio): 25.9 fold
[2]; HLM24
  CLint, sum of carbofuran metabolic pathway: 404.5 µL (mg protein min)
  CLint, sum of furathiocarb oxidation pathways: 12.25 µL (mg protein min)
  Vmax, sum of carbofuran metabolic pathway: 21.9 ± 2.1 nmol (mg protein min)
  Vmax, sum of furathiocarb oxidation pathways: 5.1 ± 1.3 nmol (mg protein min)
  carbofuran pathway / oxidation pathways (CLint ratio): 33.0 fold
[2]; HLM28
  CLint, sum of carbofuran metabolic pathway: 779.6 µL (mg protein min)
  CLint, sum of furathiocarb oxidation pathways: 6.75 µL (mg protein min)
  Vmax, sum of carbofuran metabolic pathway: 43.6 ± 4.7 nmol (mg protein min)
  Vmax, sum of furathiocarb oxidation pathways: 11.5 nmol/ (mg protein min) and 11.5 ± 6.4 nmol/ (mg protein min)
  carbofuran pathway / oxidation pathways (CLint ratio): 115 fold and 115.4 fold
[2]; HLM29
  CLint, sum of carbofuran metabolic pathway: 378.2 µL (mg protein min)
  CLint, sum of furathiocarb oxidation pathways: 10.73 µL (mg protein min)
  Vmax, sum of carbofuran metabolic pathway: 24.3 ± 2.5 nmol (mg protein min)
  Vmax, sum of furathiocarb oxidation pathways: 5.3 ± 1.4 nmol (mg protein min)
  carbofuran pathway / oxidation pathways (CLint ratio): 35.2 fold
[2]; HLM30
  CLint, sum of carbofuran metabolic pathway: 701.2 µL (mg protein min)
  CLint, sum of furathiocarb oxidation pathways: 10.99 µL (mg protein min)
  Vmax, sum of carbofuran metabolic pathway: 18.2 ± 1.8 nmol (mg protein min)
  Vmax, sum of furathiocarb oxidation pathways: 5.1 ± 1.3 nmol (mg protein min)
  carbofuran pathway / oxidation pathways (CLint ratio): 64 fold and 63.8 fold
[2]; HLM31
  CLint, sum of carbofuran metabolic pathway: 244 µl/ (mg protein min) and 244.3 µl/ (mg protein min)
  CLint, sum of furathiocarb oxidation pathways: 7.0 µl/ (mg protein min) and 7.00 µl/ (mg protein min)
  Vmax, sum of carbofuran metabolic pathway: 15.5 nmol/ (mg protein min) and 15.5 ± 1.1 nmol/ (mg protein min)
  Vmax, sum of furathiocarb oxidation pathways: 1.7 nmol/ (mg protein min) and 1.7 ± 0.3 nmol/ (mg protein min)
  carbofuran pathway / oxidation pathways (CLint ratio): 34.9 fold
[2]; HLM32
  CLint, sum of carbofuran metabolic pathway: 399.9 µL (mg protein min)
  CLint, sum of furathiocarb oxidation pathways: 13.04 µL (mg protein min)
  Vmax, sum of carbofuran metabolic pathway: 15.5 nmol/ (mg protein min) and 15.5 ± 1.4 nmol/ (mg protein min)
  Vmax, sum of furathiocarb oxidation pathways: 3.7 ± 0.6 nmol (mg protein min)
  carbofuran pathway / oxidation pathways (CLint ratio): 30.6 fold
[2]; pH 7.4, HLM20, read-out: Km, sum of carbofuran metabolic pathway
  Km: 63.2 ± 16.3 µM
[2]; pH 7.4, HLM20, read-out: Km, sum of furathiocarb oxidation pathways
  Km: 343 ± 128 µM
[2]; pH 7.4, HLM21, read-out: Km, sum of carbofuran metabolic pathway
  Km: 66.7 ± 20.6 µM
[2]; pH 7.4, HLM21, read-out: Km, sum of furathiocarb oxidation pathways
  Km: 453 ± 215 µM
[2]; pH 7.4, HLM22, read-out: Km, sum of carbofuran metabolic pathway
  Km: 71.8 ± 21.7 µM
[2]; pH 7.4, HLM23, read-out: Km, sum of carbofuran metabolic pathway
  Km: 50 ± 14.1 µM
[2]; pH 7.4, HLM23, read-out: Km, sum of furathiocarb oxidation pathways
  Km: 260 ± 117 µM
[2]; pH 7.4, HLM24, read-out: Km, sum of carbofuran metabolic pathway
  Km: 54.3 ± 16.1 µM
[2]; pH 7.4, HLM24, read-out: Km, sum of furathiocarb oxidation pathways
  Km: 410 ± 197 µM
[2]; pH 7.4, HLM28, read-out: Km, sum of carbofuran metabolic pathway
  Km: 55.8 ± 18 µM
[2]; pH 7.4, HLM28, read-out: Km, sum of furathiocarb oxidation pathways
  Km: 1710 ± 852 µM
[2]; pH 7.4, HLM29, read-out: Km, sum of carbofuran metabolic pathway
  Km: 64.2 ± 18.9 µM
[2]; pH 7.4, HLM29, read-out: Km, sum of furathiocarb oxidation pathways
  Km: 495 ± 237 µM
[2]; pH 7.4, HLM30, read-out: Km, sum of carbofuran metabolic pathway
  Km: 25.9 ± 9.5 µM
[2]; pH 7.4, HLM30, read-out: Km, sum of furathiocarb oxidation pathways
  Km: 456 ± 208 µM
[2]; pH 7.4, HLM31, read-out: Km, sum of carbofuran metabolic pathway
  Km: 63.3 ± 13.4 µM
[2]; pH 7.4, HLM31, read-out: Km, sum of furathiocarb oxidation pathways
  Km: 239 ± 79.5 µM
[2]; pH 7.4, HLM32, read-out: Km, sum of carbofuran metabolic pathway
  Km: 38.8 ± 11.3 µM
[2]; pH 7.4, HLM32, read-out: Km, sum of furathiocarb oxidation pathways
  Km: 280 ± 102 µM
[2]; range in 10-donor panel of hepatic microsomes
  Ratio carbofuran metabolic pathway / furathiocarb oxidation pathway: 24- to 115 fold
